The subject of data set [1] is Glutathione S-transferase (GST). The data set is described as follows: Enhancing effect on glutathione S-transferase (GST) activity in Hepa1c1c7 cells. The note with it: for GST activity (−fold): relative to water control. It counts as cell-based. As to the method: Hepa1c1c7 cells (ATCC CRL-2026) were suspended in a Dulbecco-modified Eagle medium (manufactured by Sigma) containing 10% of fetal bovine serum (manufactured by MP Biomedicals Co.) and 1% of penicillin-streptomycin (manufactured by Nacalai Tesque, Inc.) at 4×10^5 cells/ml. To each well of a 96 well-microtiter plate, 0.2 ml of the cell suspension was added, and cultured at 37° C. overnight in the presence of 5% carbon dioxide gas. Then, the medium in the wells was replaced with a Dulbecco-modified Eagle medium. To each well, 0.4 μl of a solution of a test substance in water was added and then cultured for 24 hours. The agarobiose obtained in Preparation Example 1 and a commercially available agaro-oligosaccharide (trade name: Agaoligo, manufactured by Takara Bio Inc., containing agarobiose, agarotetraose, agarohexaose and agarooctaose in 20 to 25% each) were used as test substances. For a negative control, water was added in place of a test substance. After completion of the culture, the medium was removed and the cells were washed with a phosphate buffer. Then, 0.1 ml of a cell-lysis solution (10 mM Tris-HCl (pH 7.4), 38.5 mM KCl, and 1 mM EDTA, 1% NP-40) was added and incubated at 37° C. for 10 minutes to obtain an enzyme solution. To 25 μl of the enzyme solution, 155 μl of a reaction solution (0.13 M potassium phosphate buffer solution (pH 6.5), 1.3 mM glutathione) was added. Immediately before measurement, 20 al of 10 mM of CDNB (2,4-dinitrochlorobenzene, manufactured by TOKYO CHEMICAL INDUSTRY CO., LTD.) as a reaction substrate was added, and a change in an absorbance at 340 nm was measured. This activity assay was performed in triplicate. The protein content was measured by using a 50-fold dilution of the enzyme solution with a phosphate buffer and MicroBCA protein assay kit (manufactured by PIERCE Co.). The GST activity was expressed as a GST activity relative to the control and calculated by the following formula.
GST activity=(Maximum rate coefficient in test substance-added section/Protein content in test substance-added section)/(Maximum rate coefficient in water-added section/Protein content in water-added section)
An effect on a GST activity caused by using DGE obtained in Preparation Example 2 was determined in accordance with Example 1. Each measurement was repeated three times. The GST activity was expressed as a GST activity relative to the control and calculated by the same formula as in Example 1.

The next data set deals with Quinone Reductase (QR). As to the kind of experiment: Quinone reductase (QR) activity in Hepa1c1c7 cells. The class given is cell-based. Conditions: for QR activity (fold vs water control): Table 3 (QR activity test), 24 hours; for QR activity (fold vs water control) / QR activity (−fold): relative to water control. As to the method:
A QR activity was measured by a partially modified method from a method described in Hans J. Prochaska et al., Analytical Biochemistry 169, 328-336 (1988). Hepa1c1c7 cells were suspended in a Dulbecco-modified Eagle medium containing 10% of fetal bovine serum and 1% of penicillin-streptomycin at 4×10^5 cells/ml. To each well of a 96 well-microtiter plate, 0.2 ml of the cell suspension was added, and cultured at 37° C. overnight in the presence of 5% carbon dioxide gas. Then, the medium in the wells was replaced with a Dulbecco-modified Eagle medium. To each well, 0.4 μl of a solution of a test substance in water was added and then cultured for 24 hours. The agarobiose obtained in Preparation Example 1 and a commercially available agaro-oligosaccharide (trade name: Agaoligo) were used as test substances. For a negative control, water was added in place of a test substance. After completion of the culture, the medium was removed and the cells were washed with a phosphate buffer. Then, 0.1 ml of a cell-lysis solution (2 mM EDTA (pH 7.8), 1% NP-40) was added and incubated at 37° C. for 10 minutes to obtain an enzyme solution. To 25 it of the enzyme solution, 100 it of a reaction solution (25 mM Tris-HCl (pH 7.4), 0.67% BSA, 0.01% Tween 20, 5 μM FAD, 1 mM G6P, 30 μM NADP, 0.3 mg/ml MTT, 2 U/ml G6PDH (manufactured by Sigma)) was added. At this time, a substrate was added or not added. In the case where a substrate was added, menadion (manufactured by Sigma) was further added at a final concentration of 50 μM into the reaction solution. After incubation at room temperature for 30 minutes, 75 μl of 2N Na2CO3 was added to terminate the reaction, and an absorbanc at 590 nm was measured. This activity assay was performed in triplicate. The protein content was measured by using a 50-fold dilution of the enzyme solution with a phosphate buffer and MicroBCA protein assay kit. The QR activity was expressed as a QR activity relative to the control and calculated by the following formula.
QR activity={[(Absorbance in test substance-added section in the presence of substrate)−(Absorbance in test substance-added section in the absence of substrate)]/(Protein content in test substance-added section)}/{[(Absorbance in water-added section in the presence of substrate)−(Absorbance in water-added section in the absence of substrate)]/(Protein content in water-added section)}

The test system of data set [2] is Intracellular Glutathione (GSH). As to the kind of experiment: Enhancing effect on intracellular glutathione (GSH) content in Hepa1c1c7 cells. It counts as cell-based. Conditions: for GSH content (−fold): 24 hours, relative to water control. As to the method: […] was measured by a partially modified method from a method described in Clarissa Gerhauser et al., Cancer Research 57, 272-278 (1997). Hepa1c1c7 cells were suspended in a Dulbecco-modified Eagle medium containing 10% of fetal bovine serum and 1% of penicillin-streptomycin at 4×10^5 cells/ml. To each well of a 96 well-microtiter plate, 0.2 ml of the cell suspension was added, and cultured at 37° C. overnight in the presence of 5% carbon dioxide gas. Then, the medium in the wells was replaced with a Dulbecco-modified Eagle medium. To each well, 0.4 μl of a solution of a test substance in water was added and then cultured for 24 hours. The agarobiose obtained in Preparation Example 1 and a commercially available agaro-oligosaccharide (trade name: Agaoligo) were used as test substances. For a negative control, water was added in place of a test substance. After completion of the culture, the medium was removed and the cells were washed with a phosphate buffer. The solution was removed, and freeze-thaw of the cells was repeated three times. Thereto was added 0.1 ml of buffer A ([…] sodium phosphate buffer (pH 7.5), 6.3 mM EDTA) to obtain a cell lysate. To 25 it of the cell lysate, 100 al of a reaction solution (25 mM Tris-HCl (pH 7.4), 1 mM G6P, 30 μM NADP, 2 U/ml G6PDH, 0.25 U/ml glutathione reductase (manufactured by Sigma), 0.6 mM DTNB) was added. After incubation at room temperature for 5 minutes, an absorbance at 405 nm was measured. This activity assay was performed in triplicate. At the same time, as a standard, serial 2-fold dilutions of 2 to 200 al of […] were used in place of the cell lysate. The protein content was measured by using a 50-fold dilution of the cell lysate with a phosphate buffer and MicroBCA protein assay kit. The GSH content was expressed as a GSH content relative to the control and calculated by the following formula.
GSH content=[(GSH content in test substance-added section)/(Protein content in test substance-added section)]/[(GSH content in water-added section)/(Protein content in water-added section)]

For a further data set, the system named is mouse. As to the kind of experiment: Single oral dose toxicity in mouse. The class given is in vivo. The note with it: oral, 2,000 mg/kg body weight as a single dose. On the procedure:
For example, in the case of oral administration, there is no fatal case when agarobiose, agarotetraose, agarohexaose, agarooctaose, a mixture thereof, or DGE is administered to a mouse in an amount of 2,000 mg/kg body weight as a single dose. Further, there is no fatal case when the above-described active ingredient is administered orally as a single dose of 2,000 mg/kg body weight to a rat.

Another data set deals with HL-60 cell. As to the kind of experiment: Cancer cell growth suppressing activity using HL-60 cell. The class given is cell-based. Conditions: HPLC fraction at retention time 4.05 to 4.16 minutes, found to be DGE. On the procedure: The neutralized product was subjected to the following normal phase HPLC. Each peak was collected, dried under reduced pressure and then dissolved in water. A cancer cell growth suppressing activity of each fraction was measured using a HL-60 cell.

Setting [3] is: 24 hours, final concentration 100 μM.
[4] abbreviates: 24 hours, final concentration 200 μM.

As to `OC[C@H]1O[C@@H](O[C@H]2[C@H]3OC[C@@H]2OC(O)[C@H]3O)[C@H](O)[C@@H](O)[C@H]1O` (mixture of isomers) [Agarobiose, agarobiose], the “Effect on GST activity (in words)” value in data set [1] is given as “significant increase”. In addition, the “GST activity (−fold)” value in data set [1] (24 hours, final concentration 25 μM) is 1.4 fold; in data set [1] (24 hours, final concentration 50 μM) it was 1.5 fold; in data set [1] (setting [3]) it was 1.9 fold; in data set [1] (setting [4]), 1.9 fold. Also, the “Effect on QR activity (in words)” value with Quinone Reductase (QR) is listed as “significant increase”. For the same compound, the “QR activity (fold vs water control)” value came out at 1.4 with Quinone Reductase (QR) (final concentration 25 μM), 1.4 in the data set on Quinone Reductase (QR) (final concentration 50 μM), 1.8 with Quinone Reductase (QR) (final concentration 100 μM) and 2.2 with Quinone Reductase (QR) (final concentration 200 μM). In addition, the “Effect on GSH content (in words)” value in data set [2] was “significant increase”. Besides, the “GSH content (−fold)” value in data set [2] (final concentration 100 μM) worked out at 1.3 fold; in data set [2] (final concentration 200 μM) it was 1.9 fold. Also, in the data set on mouse, the “Fatal cases after oral administration” value was “no fatal case”.
Consider `OC[C@H]1O[C@@H](O[C@H]2[C@H]3OC[C@@H]2O[C@@H](O[C@H]2[C@@H](O)[C@@H](CO)O[C@@H](O[C@H]4[C@H]5OC[C@@H]4O[C@@H](O[C@H]4[C@@H](O)[C@@H](CO)O[C@@H](O[C@H]6[C@H]7OC[C@@H]6OC(O)[C@H]7O)[C@@H]4O)[C@H]5O)[C@@H]2O)[C@H]3O)[C@H](O)[C@@H](O)[C@H]1O` (mixture of isomers) [agarohexaose], for which the “Fatal cases after oral administration” value in the data set on mouse is reported as “no fatal case”.
For the compound `O=C1C=CC(CO)OC1O` [DGE, L-glycero-1,5-epoxy-1αβ,6-dihydroxy-cis-hexa-3-en-2-one], in data set [1], the “Effect on GST activity (in words)” value is reported as “significant increase”. Moreover, the “GST activity (−fold)” value was determined as 1.4 fold in data set [1] (final concentration 5 μM), 1.4 fold in data set [1] (final concentration 10 μM) and 1.6 fold in data set [1] (final concentration 20 μM). Besides, the “Fatal cases after oral administration” value in the data set on mouse is reported as “no fatal case”. The “Cancer cell growth suppressing activity” value in the data set on HL-60 cell is “had a cancer cell growth suppressing activity”.
On to `OC[C@H]1O[C@@H](O)[C@H](O)[C@@H](O[C@@H]2O[C@H]3CO[C@@H]([C@@H]2O)[C@@H]3O[C@@H]2O[C@H](CO)[C@H](O)[C@H](O[C@@H]3O[C@H]4CO[C@@H]([C@@H]3O)[C@@H]4O[C@@H]3O[C@H](CO)[C@H](O)[C@H](O[C@@H]4O[C@H]5CO[C@@H]([C@@H]4O)[C@@H]5O)[C@H]3O)[C@H]2O)[C@H]1O` [Neoogarohexaose, neoagarohexaose, reference compound], for which, in data set [1], the “Effect on GST activity (in words)” value is listed as “did not result in a significant increase”. Further, the “GST activity (−fold)” value in data set [1] (setting [3]) and in data set [1] (setting [4]) was 1.1 fold throughout. In the data set on Quinone Reductase (QR), the “Effect on QR activity (in words)” value is given as “did not result in a significant increase”. For the same compound, the “QR activity (−fold)” value with Quinone Reductase (QR) (final concentration 100 μM) is 1.0 fold; with Quinone Reductase (QR) (final concentration 200 μM), 1.1 fold.
`OC[C@H]1O[C@@H](O[C@H]2[C@H]3OC[C@@H]2O[C@@H](O[C@H]2[C@@H](O)[C@@H](CO)O[C@@H](O[C@H]4[C@H]5OC[C@@H]4OC(O)[C@H]5O)[C@@H]2O)[C@H]3O)[C@H](O)[C@@H](O)[C@H]1O` (some centres unmarked) [agarotetraose]: the “Fatal cases after oral administration” value in the data set with mouse was “no fatal case”.
As for agarooctaose, the “Fatal cases after oral administration” value in the data set with mouse was “no fatal case”.

The values above are taken from patent US20100317613A1, “ACTIVITY ENHANCER FOR DETOXIFYING ENZYME” (TAKARA BIO INC., priority 2006, published 2010).
